Here are results for 1 compound from US12577255B2, “MDM2-based modulators of proteolysis and associated methods of use” (Arvinas Operations, Inc., priority 2015, dated 2026).

Test [1] deals with T1, MDM2 (Homo sapiens, UniProt Q00987).
T1 construct: Western blot of HCT116 cells treated with chimeric molecules; endogenous in cells; host or cells: HCT116
Nature of the test: Western blot of HCT116 cells, MDM2 level. It counts as cell-based. As to conditions: Western blot (FIG. 2, FIG. 3).

For test [2], the system named is p53. Nature of the test: Western blot of HCT116 cells, p53 level. It counts as cell-based, human. As to conditions: Western blot (FIG. 2, FIG. 3). A general note: In western blotting, separated proteins are transferred to a membrane and probed.
Test [3] deals with BRD4 (Homo sapiens, UniProt O60885). The experiment in a line: Time course of BRD4 degradation in A549. The test is classed as cell-based. On the set-up: endogenous in cells; host or cells: A549. As to conditions: human lung cancer cell line A549 (FIG. 6).
Test [4] concerns p53^WT HCT-116 colon cancer cell lines. Nature of the test: Cell growth assay. As to conditions: p53^WT HCT-116 (FIG. 4). It counts as cell-based, human.
In test [5] the target is T2, bromodomain-containing protein 4 (BRD4) (Homo sapiens, UniProt O60885).
T2 construct: VCaP cells were chased from ATCC and cultured in Dulbecco's Modified Eagle's Medium; host or cells: VCaP
The experiment in a line: BRD4 Western blot (degradation). As to conditions: at 1 μM; VCaP cells, 16 h. It counts as cell-based.

T1 sequence (Q00987 whole entry): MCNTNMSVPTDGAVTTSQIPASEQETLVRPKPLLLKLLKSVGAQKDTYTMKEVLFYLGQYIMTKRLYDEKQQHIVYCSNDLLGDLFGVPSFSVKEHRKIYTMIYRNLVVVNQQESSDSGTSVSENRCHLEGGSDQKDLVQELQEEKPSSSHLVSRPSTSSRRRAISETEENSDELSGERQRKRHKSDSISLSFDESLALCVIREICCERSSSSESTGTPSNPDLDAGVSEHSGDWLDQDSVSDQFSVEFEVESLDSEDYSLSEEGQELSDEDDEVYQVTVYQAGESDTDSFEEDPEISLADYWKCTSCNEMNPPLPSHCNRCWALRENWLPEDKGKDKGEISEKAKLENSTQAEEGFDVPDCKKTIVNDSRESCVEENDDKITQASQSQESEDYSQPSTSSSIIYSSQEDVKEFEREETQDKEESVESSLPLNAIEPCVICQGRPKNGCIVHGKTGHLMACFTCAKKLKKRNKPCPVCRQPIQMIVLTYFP

Regarding `COc1cc(C(=O)NCCOCCOCCOCCOCCNC(=O)C[C@@H]2N=C(c3ccc(Cl)cc3)c3c(sc(C)c3C)-n3c(C)nnc32)ccc1NC(=O)[C@@H]1N[C@@H](CC(C)(C)C)[C@](C#N)(c2ccc(Cl)cc2F)[C@H]1c1cccc(Cl)c1F` [Compound A1893, (2R,3S,4R,5S)-3-(3-chloro-2-fluorophenyl)-4-(4-chloro-2-fluorophenyl)-N-{4-[(14-{2-[(9S)-7-(4-chlorophenyl)-4,5,13-trimethyl-3-thia-1,8,11,12-tetraazatricyclo[8.3.0.0^2,^6]-trideca-2(6),4,7,10,12-pentaen-9-yl]acetamido}-3,6,9,12-tetraoxatetradecan-1-yl)carbamoyl]-2-methoxyphenyl}-4-cyano-5-(2,2-dimethylpropyl)pyrrolidine-2-carboxamide], the MDM2 up-regulation entry in test [1] is recorded as “up-regulation of MDM2”. The p53 level increase entry in test [2] is listed as “dose dependent p53 level increase”. Besides, the “BRD4 degradation, time course” value in test [3] is “BRD4 degradation”. The growth inhibition result in test [4] was “very potent growth inhibition”. In addition, in test [5], the “Degradation activity BRD4” value is recorded as “C (larger than 50% degradation at 1 μM)”.
